Test system: influenza A virus A/Aichi/2/68 (H3N2) (Aichi (H3N2))
Assay: microbe, parasite or virus in culture
Type: cell-based
Conditions: Influenza A virus, H3N2, MDCK, read-out: IC50 (50% inhibitory concentration)

Compound: CC1(C)[C@H]2CC[C@]1(C)[C@H](OC(=O)C[N+](C)(C)C)C2.[I-] [10a, N,N,N-Trimethyl-2-oxo-2-((1S,2R,4S)-1,7,7-trimethylbicyclo[2.2.1]heptan-2-yloxy)ethanaminium iodide]
- IC50: 16.8 µM

Source: article PMC8116641 (Archives of Virology, 2021)
